PubChem BioAssay AID1963829 (Molecular Pharmacology Branch, DTP, NCI, 2024)

Tested on: 935938-334-R-J1-PDC complex spheroid viability
Experiment: Anticancer human tumor 935938-334-R-J1-PDC patient-derived small intestine adenocarcinoma cell line growth inhibition [POLQ]
Conditions: for IC50: curve of first compound; for viability, T/C: stronger effect = lower value
Description: Multicellular complex tumor spheroid response to Polymerase (POL) inhibitors (novobiocin, ART-558, RP6685) in combination with a variety of drugs and investigational agents in selected tumor cell lines
The POL inhibitors (novobiocin, ART-558, and RP6685) were evaluated both individually and in combination with standard of care and investigational anticancer small molecules within a complex spheroid model of solid tumors. . Complex spheroids include a stromal component modeled by human endothelial cells (HUVEC) and fibroblasts modeled by human mesenchymal stem cells (MSCs). The concentration ranges selected for each drug and investigational agent were based upon clinically achievable concentrations if the clinical Cmax of the agent was known.
Compounds. The drugs and investigational agents: novobiocin (NSC847541), ART-558 (NSC835418), RP-6685 (NSC848927), peposertib (NSC802822), ceralasertib (NSC780249), elimusertib (NSC800525), camonsertib (NSC841442), AZD-1390 (NSC803789), olaparib (NSC753686), talazoparib (NSC767125), rucaparib (NSC756644), sotorasib (NSC818433), MRTX-1133 (NSC836407), SN-38 (NSC673596), topotecan (NSC609699), epotoside (NSC141540), doxorubicin (NSC123127), gemcitabine (NSC613327), 5-fluorouracil (NSC19893), paclitaxel (NSC125973), vemurafenib (NSC761431), MSA-2 (NSC828583), SN-011 (NSC837082), adavosertib (NSC754352), prexasertib (NSC758257), carboplatin (NSC241240) and oxaliplatin (NSC266046), were obtained from the National Cancer Institute (NCI) Developmental Therapeutics Program Chemical Repository (21). The FDA-approved anticancer drug set is available from the Developmental Therapeutics Program at https://dtp.cancer.gov/organization/dscb/obtaining/. […] The stock solutions were prepared in dimethyl sulfoxide (DMSO, Sigma-Aldrich, St. Louis, MO, cat. D2650), except for the platinum compounds which were prepared in saline (Quality Biological, Gaithersburg, MD, cat. 114-055-101), at 800-fold the tested concentration and stored at -70 degrees C prior to their use. All drugs and investigational agents were tested over a range starting from a high concentration at or near the clinical Cmax and decreasing in half-log increments. If the clinical Cmax for an agent had not been determined, the highest concentration tested was 10 microM, except for SN-38, which was tested at a high concentration of 1 microM.
Cell Culture. All cells were maintained in an incubator at 37 degrees C and 5% CO2 with 95% humidity. The PDC lines were cultured according to standard operating procedures established by the NCI PDMR (https://pdmr.cancer.gov). Table 3 of the manuscript, lists the cell lines along with the number of the three cell types plated to form the mct-spheroids and media for tumor cell growth. After thawing, all PDC lines, except 997537-175-T-J1-PDC and 415267-285-R-J2-PDC, were cultured in Matrigel-coated flasks prepared with a working solution of 1X Ham's F-12 nutrient mix, without supplementation (Thermo Fisher Scientific, cat. 11765054), 100 U/mL penicillin-streptomycin (Thermo Fisher Scientific, cat. 15140122), and 2.5% Matrigel (Corning Inc., Corning, NY, cat. 354248) for the first three passages. The two PDC lines 997537-175-T-J1-PDC and 415267-285-R-J2-PDC were cultured on uncoated flasks. The 857933-349-R-J2-PDC line was cultured in 6C/Colon 1B media containing advanced DMEM/F-12 (Thermo Fisher Scientific, cat. 12634028), 10 mM HEPES (Thermo Fisher Scientific, cat. 15630080), 1X GlutaMAX supplement (Thermo Fisher Scientific, cat. 35050061), 0.1 mg/mL primocin (InvivoGen, San Diego, CA, cat. ant-pm-2), 10% defined fetal bovine serum, heat inactivated (HyClone Laboratories Inc., Logan, UT, cat. SH30070.03HI), 50% L-WRN conditioned media (ATCC, cat. CRL-3276), 1.25 mM N-Acetyl-L-cysteine (Sigma-Aldrich, cat. A9165), 10 mM nicotinamide (Sigma-Aldrich, cat. N0636), 1X B-27 supplement (Thermo Fisher Scientific, cat. 17504044), 1X N-2 supplement (Thermo Fisher Scientific, cat. […]
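Also: spheroids exposed to drugs for seven days before viability read.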
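For viability, T/C in this document: 100% = DMSO vehicle control wells.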

## COc1cccc2c1C(=O)c1c(O)c3c(c(O)c1C2=O)CC(O)(C(=O)CO)CC3OC1CC(N)C(O)C(C)O1 (configuration not stated) + COC1C(OC(N)=O)C(O)C(Oc2ccc3c(O)c(NC(=O)c4ccc(O)c(CC=C(C)C)c4)c(=O)oc3c2C)OC1(C)C
Second compound 0.0316 µM
  IC50: 217 nM
Second compound 0.1 µM
  IC50: 221 nM
Second compound 0.316 µM
  IC50: 190 nM
Second compound 1 µM
  IC50: 228 nM
Second compound 3.16 µM
  IC50: 211 nM
Second compound 10 µM
  IC50: 216 nM
Second compound 0.0316 µM, first compound 0.0316 µM
  viability, T/C: 84.4%
Second compound 0.0316 µM, first compound 0.1 µM
  viability, T/C: 93.7%
Second compound 0.0316 µM, first compound 0.316 µM
  viability, T/C: 30.8%
Second compound 0.0316 µM, first compound 1 µM
  viability, T/C: 19.2%
Second compound 0.0316 µM, first compound 3.16 µM
  viability, T/C: 5.61%
Second compound 0.0316 µM, first compound 10 µM
  viability, T/C: 7.78%
Second compound 0.1 µM, first compound 0.0316 µM
  viability, T/C: 75.3%
Second compound 0.1 µM, first compound 0.1 µM
  viability, T/C: 98.3%
Second compound 0.1 µM, first compound 0.316 µM
  viability, T/C: 33.4%
Second compound 0.1 µM, first compound 1 µM
  viability, T/C: 20.2%
Second compound 0.1 µM, first compound 3.16 µM
  viability, T/C: 4.7%
Second compound 0.1 µM, first compound 10 µM
  viability, T/C: 4.37%
Second compound 0.316 µM, first compound 0.0316 µM
  viability, T/C: 67.5%
Second compound 0.316 µM, first compound 0.1 µM
  viability, T/C: 93.3%
Second compound 0.316 µM, first compound 0.316 µM
  viability, T/C: 25.9%
Second compound 0.316 µM, first compound 1 µM
  viability, T/C: 20.4%
Second compound 0.316 µM, first compound 3.16 µM
  viability, T/C: 6.24%
Second compound 0.316 µM, first compound 10 µM
  viability, T/C: 5.64%
Second compound 1 µM, first compound 0.0316 µM
  viability, T/C: 66.8%
Second compound 1 µM, first compound 0.1 µM
  viability, T/C: 103%
Second compound 1 µM, first compound 0.316 µM
  viability, T/C: 36%
Second compound 1 µM, first compound 1 µM
  viability, T/C: 23.7%
Second compound 1 µM, first compound 3.16 µM
  viability, T/C: 6.64%
Second compound 1 µM, first compound 10 µM
  viability, T/C: 5.44%
Second compound 3.16 µM, first compound 0.0316 µM
  viability, T/C: 52.7%
Second compound 3.16 µM, first compound 0.1 µM
  viability, T/C: 113%
Second compound 3.16 µM, first compound 0.316 µM
  viability, T/C: 32.1%
Second compound 3.16 µM, first compound 1 µM
  viability, T/C: 22.1%
Second compound 3.16 µM, first compound 3.16 µM
  viability, T/C: 6.52%
Second compound 3.16 µM, first compound 10 µM
  viability, T/C: 3.3%
Second compound 10 µM, first compound 0.0316 µM
  viability, T/C: 61.5%
Second compound 10 µM, first compound 0.1 µM
  viability, T/C: 122%
Second compound 10 µM, first compound 0.316 µM
  viability, T/C: 29%
Second compound 10 µM, first compound 1 µM
  viability, T/C: 21.3%
Second compound 10 µM, first compound 3.16 µM
  viability, T/C: 5.32%
Second compound 10 µM, first compound 10 µM
  viability, T/C: 5.87%
